Measurements reported in patent publication US9926304B2, “1-(arylmethyl)quinazoline-2,4(1H,3H)-diones as PARP inhibitors and the use thereof” (Impact Therapeutics, Inc., priority 2011, dated 2018).
Where two headings read alike, the source gives them in different places.

What was measured:
[1] = system: SW620 human colorectal cancer cells; experiment: MTT based cell viability assay: potentiation of the growth inhibiting activity of MMS
[2] = system: Human breast cancer cell line T47D; experiment: Cell based caspase-3 activity assay: potentiation of MMS induced apoptosis; conditions: read-out: EC50 (nM), potentiation of the apoptosis inducing activity of MMS
Summary of the method: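 T47D cells were exposed for 24 h to compound plus a minimally apoptotic MMS dose (medium containing 11.1 μg/ml MMS). Lysates were incubated 3 h at 37 °C with (Ac-DEVD)2-R110 caspase-3 substrate (20 μM in added buffer) and read at ex 496/em 520 nm. EC50 came from a sigmoidal fit of RFU versus log concentration.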

advanced breast cancer = conditions: Phase II clinical trial; cited from earlier work
PARP-1 enzyme = biological target: T1, PARP-1 enzyme (Homo sapiens, UniProt P09874); experiment: PARP-1 enzymatic activity assay (Trevigen 96-well kit 4676-096-K); type: biochemical; conditions: 0.5 unit PARP-1, histone pre-coated plate, 60 min at room temperature; read-out: IC50 (nM), inhibitory effect on PARP-1 enzymatic activity
T1 construct: purchased Trevigen, Inc. 4676-096-K
Description: Measurement of the inhibitory effect of 1-(3-(4-(pyrimidin-2-yl)piperazine-1-carbonyl)benzyl)quinazoline-2,4(1H,3H)-dione and analogs on PARP-1 enzymatic activity
Briefly, PARP-1 catalyzes the NAD-dependent addition of poly(ADP-ribose) to its nuclear protein substrates such as histones. The assay kit measures the incorporation of biotynylated poly(ADP-ribose) onto histone proteins in a 96-well format.

[3] = system: BRCA-2 deficient CAPAN-1 human pancreatic cancer cells; experiment: MTT based cell viability assay: growth inhibition of BRCA-2 deficient CAPAN-1 cells; conditions: 240 h, compound alone, 10 day assay
[4] = Homo sapiens, SW-620, 120 h, read-out: IC50 (nM), potentiation of the growth inhibiting activity of MMS, SW620 cells, 1.7 μg/ml MMS, 5 days (120 hours), MTT
[5] = Homo sapiens, T47D, 24 h, T47D cells, 11.1 μg/ml MMS, 24 hours, intracellular caspase-3 activity
[6] = read-out: IC50 (nM), potentiation of the growth inhibiting activity of MMS, SW620 cells, 1.7 μg/ml MMS, 5 days (120 hours), MTT

T1 sequence (P09874 whole entry): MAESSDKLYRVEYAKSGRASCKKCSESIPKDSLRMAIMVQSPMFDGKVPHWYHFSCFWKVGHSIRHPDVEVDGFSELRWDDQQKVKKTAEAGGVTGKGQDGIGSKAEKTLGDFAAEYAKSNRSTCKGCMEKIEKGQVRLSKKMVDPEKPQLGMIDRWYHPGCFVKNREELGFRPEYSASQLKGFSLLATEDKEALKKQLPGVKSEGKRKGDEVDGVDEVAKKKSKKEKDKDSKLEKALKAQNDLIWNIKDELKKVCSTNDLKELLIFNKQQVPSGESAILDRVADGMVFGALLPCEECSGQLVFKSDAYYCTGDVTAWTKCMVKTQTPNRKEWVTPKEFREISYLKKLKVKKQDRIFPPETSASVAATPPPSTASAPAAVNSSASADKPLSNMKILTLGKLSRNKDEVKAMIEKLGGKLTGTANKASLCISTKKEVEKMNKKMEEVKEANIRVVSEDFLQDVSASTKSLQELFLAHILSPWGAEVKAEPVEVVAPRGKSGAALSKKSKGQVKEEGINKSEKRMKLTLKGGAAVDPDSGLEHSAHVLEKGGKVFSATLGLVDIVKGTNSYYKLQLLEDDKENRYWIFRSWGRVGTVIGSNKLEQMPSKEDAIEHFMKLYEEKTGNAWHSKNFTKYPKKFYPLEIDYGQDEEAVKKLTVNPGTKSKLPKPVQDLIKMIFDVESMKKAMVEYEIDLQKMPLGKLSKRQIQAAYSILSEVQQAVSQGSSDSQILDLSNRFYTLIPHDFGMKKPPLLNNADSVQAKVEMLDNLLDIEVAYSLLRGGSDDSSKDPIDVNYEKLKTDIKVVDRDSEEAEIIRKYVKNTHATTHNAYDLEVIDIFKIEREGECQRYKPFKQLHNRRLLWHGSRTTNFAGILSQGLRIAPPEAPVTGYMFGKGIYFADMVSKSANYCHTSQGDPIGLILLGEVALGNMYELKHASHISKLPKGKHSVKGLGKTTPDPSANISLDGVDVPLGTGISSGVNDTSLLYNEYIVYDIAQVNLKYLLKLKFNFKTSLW

| IC50 ([1]; Homo sapiens, SW-620, 120 h, read-out: IC50 (nM), potentiation of the growth inhibiting activity of MMS) | EC50 ([2]; Homo sapiens, T47D, 24 h) | IC50 [1, 4] | IC50 (PARP-1 enzyme) | EC50 [2, 5] | IC50 [3] | IC50 [1, 6] | EC50 ([2]; T47D cells, 11.1 μg/ml MMS, 24 hours, intracellular caspase-3 activity) | Compound | efficacy in treatment of advanced breast cancer (advanced breast cancer) |
| --- | --- | --- | --- | --- | --- | --- | --- | --- | --- |
|  |  | 2.8 nM | 1.15 nM | 3.4 nM | 78 nM |  |  | O=C(c1cc(Cn2c(=O)[nH]c(=O)c3cc(F)ccc32)ccc1F)N1CCN(c2ncccn2)CC1 [Example 144, 6-Fluoro-1-(4-fluoro-3-(4-(pyrimidin-2-yl)piperazine-1-carbonyl)benzyl)quinazoline-2,4(1H,3H)-dione] |  |
|  |  |  | 0.21 nM | 3.9 nM | 98 nM | 9.8 nM |  | O=C(c1cc(Cn2c(=O)[nH]c(=O)c3ccccc32)ccc1F)N1CCN(c2ncccn2)CC1 [Example 25, 1-(4-Fluoro-3-(4-(pyrimidin-2-yl)piperazine-1-carbonyl)benzyl)quinazoline-2,4(1H,3H)-dione] |  |
|  |  |  | 0.96 nM |  | 55 nM | 12 nM | 12 nM | O=C(c1cccc(Cn2c(=O)[nH]c(=O)c3ccccc32)c1)N1CCN(c2ncccn2)CC1 [Example 4, 1-(3-(4-(Pyrimidin-2-yl)piperazine-1-carbonyl)benzyl)quinazoline-2,4(1H,3H)-dione] |  |

Continued, molecule first:

| Compound | IC50 ([1]; Homo sapiens, SW-620, 120 h, read-out: IC50 (nM), potentiation of the growth inhibiting activity of MMS) | EC50 ([2]; Homo sapiens, T47D, 24 h) | IC50 [1, 4] | IC50 (PARP-1 enzyme) | EC50 [2, 5] | IC50 [3] | IC50 [1, 6] | EC50 ([2]; T47D cells, 11.1 μg/ml MMS, 24 hours, intracellular caspase-3 activity) | efficacy in treatment of advanced breast cancer (advanced breast cancer) |
| --- | --- | --- | --- | --- | --- | --- | --- | --- | --- |
| O=C(c1cc(Cc2n[nH]c(=O)c3ccccc23)ccc1F)N1CCN(C(=O)C2CC2)CC1 [AZD2281, olaparib, reference compound] | 28 nM | 24 nM |  |  |  |  |  |  | effective |
| O=C(c1cc(Cn2c(=O)[nH]c(=O)c3cc(F)ccc32)ccc1F)N1CCN(C(=O)C2CCCCC2)CC1 [Example 147, 1-(3-(4-(Cyclohexylcarbonyl)piperazine-1-carbonyl)-4-fluorobenzyl)-6-fluoroquinazoline-2,4(1H,3H)-dione] |  |  | 2.7 nM | 1.2 nM | 3.4 nM | 47 nM |  |  |  |
| O=C(c1ccccc1)N1CCN(C(=O)c2cccc(Cn3c(=O)[nH]c(=O)c4ccccc43)c2)CC1 [Example 8, 1-(3-(4-Benzoylpiperazine-1-carbonyl)benzyl)quinazoline-2,4(1H,3H)-dione] |  |  | 112 nM | 5.3 nM | 120 nM | 2360 nM |  |  |  |
